Measured values from ChEMBL document CHEMBL4368931, “Discovery of novel thienoquinoline-2-carboxamide chalcone derivatives as antiproliferative EGFR tyrosine kinase inhibitors” (Bioorg Med Chem, 2019).

Columns and labels:
PANC-1 = assay: Antiproliferative activity against human PANC1 cells after 48 hrs by propidium iodide fluorescence assay; format: functional, cell-based; details: PANC-1, 48 h
MIA PaCa-2 = assay: Antiproliferative activity against human MIAPaCa2 cells after 48 hrs by propidium iodide fluorescence assay; format: functional, cell-based; details: MIA PaCa-2, 48 h
HT-29 = assay: Antiproliferative activity against human HT-29 cells after 48 hrs by propidium iodide fluorescence assay; format: functional, cell-based; details: HT-29, 48 h
NCI-H460 [1] = assay: Antiproliferative activity against human NCI-H460 cells after 48 hrs by propidium iodide fluorescence assay; format: functional, cell-based; details: NCI-H460, 48 h
A-375 = assay: Antiproliferative activity against human A375 cells after 48 hrs by propidium iodide fluorescence assay; format: functional, cell-based; details: A-375, 48 h
[2] = Cytotoxicity in human MCF10A cells assessed as cell viability incubated for 4 days by MTT assay; format: cell-based, MCF-10A; design: concentration or dose not given beside the values; details: read-out: Activity
[3] = target: Epidermal growth factor receptor (Homo sapiens, UniProt P00533); assay: Inhibition of His6-tagged EGFR cytoplasmic domain (645 to 1186 residues) (unknown origin) expressed in baculovirus infected Sf9 insect cells after 10 mins by DELFIA/time-resolved fluorometry
Epidermal growth factor receptor, sequence (P00533 whole entry, the tested form may be a part): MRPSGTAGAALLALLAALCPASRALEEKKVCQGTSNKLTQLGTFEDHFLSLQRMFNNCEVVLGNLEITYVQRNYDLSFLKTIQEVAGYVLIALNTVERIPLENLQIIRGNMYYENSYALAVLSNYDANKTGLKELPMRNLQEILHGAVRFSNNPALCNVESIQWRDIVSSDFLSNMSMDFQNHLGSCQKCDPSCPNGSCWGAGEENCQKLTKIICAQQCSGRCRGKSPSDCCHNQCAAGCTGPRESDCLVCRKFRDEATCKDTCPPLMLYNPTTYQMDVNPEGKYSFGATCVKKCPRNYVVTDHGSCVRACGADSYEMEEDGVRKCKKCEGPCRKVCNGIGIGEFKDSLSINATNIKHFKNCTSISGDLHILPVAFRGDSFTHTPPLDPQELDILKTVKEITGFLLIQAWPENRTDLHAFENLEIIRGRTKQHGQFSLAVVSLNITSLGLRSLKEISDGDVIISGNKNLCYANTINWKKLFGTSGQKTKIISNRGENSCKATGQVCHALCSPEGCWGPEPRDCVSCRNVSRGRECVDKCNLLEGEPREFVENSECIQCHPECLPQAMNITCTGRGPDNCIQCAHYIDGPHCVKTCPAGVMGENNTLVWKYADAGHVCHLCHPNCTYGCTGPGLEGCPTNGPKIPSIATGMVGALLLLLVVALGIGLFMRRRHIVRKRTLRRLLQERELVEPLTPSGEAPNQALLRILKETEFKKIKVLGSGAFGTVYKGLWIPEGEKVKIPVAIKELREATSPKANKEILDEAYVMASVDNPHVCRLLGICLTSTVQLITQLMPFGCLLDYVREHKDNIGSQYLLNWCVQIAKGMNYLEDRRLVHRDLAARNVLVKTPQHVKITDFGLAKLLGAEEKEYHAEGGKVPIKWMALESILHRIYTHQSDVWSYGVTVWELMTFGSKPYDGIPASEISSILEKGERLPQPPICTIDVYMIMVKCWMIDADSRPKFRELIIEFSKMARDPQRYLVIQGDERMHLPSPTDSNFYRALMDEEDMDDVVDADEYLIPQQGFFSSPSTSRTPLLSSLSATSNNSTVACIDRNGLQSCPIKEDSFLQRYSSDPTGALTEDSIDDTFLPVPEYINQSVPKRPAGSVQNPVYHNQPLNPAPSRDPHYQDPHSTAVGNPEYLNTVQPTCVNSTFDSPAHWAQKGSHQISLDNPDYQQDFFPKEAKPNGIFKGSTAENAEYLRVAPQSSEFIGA

NCI-H460 [4] = assay: Cell cycle arrest in human NCI-H460 cells assessed as apoptotic cells at 0.2 uM after 24 hrs by propidium iodide staining-based flow cytometric analysis (reference value: 1.55%); format: functional
NCI-H460 [5] = assay: Cell cycle arrest in human NCI-H460 cells assessed as accumulation of cells at G1 phase at 0.2 uM after 24 hrs by propidium iodide staining-based flow cytometric analysis (reference value: 47.39%); format: functional
NCI-H460 [6] = assay: Cell cycle arrest in human NCI-H460 cells assessed as accumulation of cells at G2 phase at 0.2 uM after 24 hrs by propidium iodide staining-based flow cytometric analysis (reference value: 10%); format: functional
NCI-H460 [7] = assay: Cell cycle arrest in human NCI-H460 cells assessed as accumulation of cells at S phase at 0.2 uM after 24 hrs by propidium iodide staining-based flow cytometric analysis (reference value: 42.61%); format: functional
NCI-H460 [8] = assay: Induction of apoptosis in human NCI-H460 cells assessed as early apoptotic cells at 0.2 uM after 24 hrs by Annexin V-FITC/propidium iodide staining-based flow cytometric analysis relative to control; format: functional
NCI-H460 [9] = assay: Induction of apoptosis in human NCI-H460 cells assessed as late apoptotic cells at 0.2 uM after 24 hrs by Annexin V-FITC/propidium iodide staining-based flow cytometric analysis relative to control; format: functional
NCI-H460 [10] = assay: Induction of apoptosis in human NCI-H460 cells assessed as necrotic cells at 0.2 uM after 24 hrs by Annexin V-FITC/propidium iodide staining-based flow cytometric analysis relative to control; format: functional
[11] = target: Vascular endothelial growth factor receptor 1 (Homo sapiens, UniProt P17948); assay: Inhibition of VEGFR1 (unknown origin)
Vascular endothelial growth factor receptor 1, sequence (P17948 whole entry): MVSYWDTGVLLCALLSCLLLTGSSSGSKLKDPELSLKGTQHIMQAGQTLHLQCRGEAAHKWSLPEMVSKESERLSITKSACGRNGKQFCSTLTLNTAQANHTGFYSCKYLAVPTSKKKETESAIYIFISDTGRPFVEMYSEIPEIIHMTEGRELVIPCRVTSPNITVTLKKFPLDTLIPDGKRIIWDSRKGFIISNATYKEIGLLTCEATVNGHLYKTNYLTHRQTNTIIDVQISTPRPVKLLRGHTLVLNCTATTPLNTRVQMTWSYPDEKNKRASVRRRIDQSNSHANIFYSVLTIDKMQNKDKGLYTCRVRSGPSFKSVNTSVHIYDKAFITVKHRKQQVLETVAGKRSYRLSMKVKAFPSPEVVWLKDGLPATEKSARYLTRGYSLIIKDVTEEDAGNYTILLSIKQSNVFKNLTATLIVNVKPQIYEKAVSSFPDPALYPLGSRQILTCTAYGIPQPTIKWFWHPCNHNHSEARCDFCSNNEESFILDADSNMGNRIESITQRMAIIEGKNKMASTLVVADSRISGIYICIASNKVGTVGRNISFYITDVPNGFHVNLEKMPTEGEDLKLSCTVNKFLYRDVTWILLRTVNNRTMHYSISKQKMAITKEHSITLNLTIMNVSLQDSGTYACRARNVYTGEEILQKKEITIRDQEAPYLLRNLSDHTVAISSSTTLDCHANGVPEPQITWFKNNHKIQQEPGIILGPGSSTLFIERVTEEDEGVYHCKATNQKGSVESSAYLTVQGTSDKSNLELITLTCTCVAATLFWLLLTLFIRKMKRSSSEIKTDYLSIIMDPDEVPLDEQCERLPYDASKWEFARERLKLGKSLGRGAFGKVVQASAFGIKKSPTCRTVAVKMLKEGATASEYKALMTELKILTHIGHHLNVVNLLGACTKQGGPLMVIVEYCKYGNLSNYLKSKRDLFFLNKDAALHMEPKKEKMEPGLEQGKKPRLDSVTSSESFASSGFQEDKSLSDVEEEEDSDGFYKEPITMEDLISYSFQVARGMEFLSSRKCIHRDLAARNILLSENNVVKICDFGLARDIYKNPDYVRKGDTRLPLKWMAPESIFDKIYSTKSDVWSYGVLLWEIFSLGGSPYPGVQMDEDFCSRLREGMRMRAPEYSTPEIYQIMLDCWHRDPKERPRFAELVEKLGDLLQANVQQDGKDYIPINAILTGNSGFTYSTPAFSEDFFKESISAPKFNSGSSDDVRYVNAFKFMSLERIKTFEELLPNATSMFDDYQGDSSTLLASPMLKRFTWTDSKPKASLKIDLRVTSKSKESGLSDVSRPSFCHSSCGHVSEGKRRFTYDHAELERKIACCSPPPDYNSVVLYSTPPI

[12] = target: Serine/threonine-protein kinase Chk2 (Homo sapiens, UniProt O96017); assay: Inhibition of CHK2 (unknown origin)
Serine/threonine-protein kinase Chk2, sequence (O96017 whole entry): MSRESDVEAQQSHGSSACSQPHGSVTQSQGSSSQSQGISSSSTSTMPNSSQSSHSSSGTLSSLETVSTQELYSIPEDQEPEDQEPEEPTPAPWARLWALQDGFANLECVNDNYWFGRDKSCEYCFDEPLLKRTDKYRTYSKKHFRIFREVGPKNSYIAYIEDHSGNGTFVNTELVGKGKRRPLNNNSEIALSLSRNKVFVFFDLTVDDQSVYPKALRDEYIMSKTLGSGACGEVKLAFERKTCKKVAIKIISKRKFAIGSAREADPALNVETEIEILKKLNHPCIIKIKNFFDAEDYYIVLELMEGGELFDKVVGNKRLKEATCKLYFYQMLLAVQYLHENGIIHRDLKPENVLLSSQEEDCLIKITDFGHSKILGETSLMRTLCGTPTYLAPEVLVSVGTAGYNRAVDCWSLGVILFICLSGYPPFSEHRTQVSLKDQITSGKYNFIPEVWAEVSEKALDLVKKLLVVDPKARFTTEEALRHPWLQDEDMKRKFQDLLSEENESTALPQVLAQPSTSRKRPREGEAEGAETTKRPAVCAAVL

Compound	IC50 (PANC-1)	IC50 (MIA PaCa-2)	IC50 (HT-29)	IC50 (NCI-H460 [1])	IC50 (A-375)	viability at 96 h [2]	IC50 [3]	Activity (NCI-H460 [4])	Activity (NCI-H460 [5])	Activity (NCI-H460 [6])	Activity (NCI-H460 [7])	Activity (NCI-H460 [8])	Activity (NCI-H460 [9])	Activity (NCI-H460 [10])	IC50 [11]	IC50 [12]
Cc1ccc2nc3sc(C(=O)Nc4ccc(C(=O)/C=C/c5ccccc5)cc4)cc3cc2c1	9.5 µM	9.2 µM	10.4 µM	9.7 µM	25.9 µM	> 91%	–	–	–	–	–	–	–	–	–	–
COc1ccc2nc3sc(C(=O)Nc4ccc(C(=O)/C=C/c5ccccc5)cc4)cc3cc2c1	5.5 µM	5.9 µM	7.8 µM	6.5 µM	16.7 µM	> 91%	–	–	–	–	–	–	–	–	–	–
COc1cccc(/C=C/C(=O)c2ccc(NC(=O)c3cc4cc5cc(C)ccc5nc4s3)cc2)c1	3.5 µM	3.7 µM	4.2 µM	3.6 µM	17.6 µM	> 91%	2.9 µM	–	–	–	–	–	–	–	–	–
COc1cc(/C=C/C(=O)c2ccc(NC(=O)c3cc4cc5ccccc5nc4s3)cc2)cc(OC)c1OC	1.4 µM	1.7 µM	2.5 µM	2.7 µM	4.2 µM	> 91%	1.2 µM	–	–	–	–	–	–	–	–	–
COc1cccc(/C=C/C(=O)c2ccc(NC(=O)c3cc4cc5ccccc5nc4s3)cc2)c1	6.7 µM	6.2 µM	9.4 µM	9.7 µM	28.4 µM	> 91%	–	–	–	–	–	–	–	–	–	–
COc1ccc2nc3sc(C(=O)Nc4ccc(C(=O)/C=C/c5cc(OC)c(OC)c(OC)c5)cc4)cc3cc2c1	1.4 µM	1 µM	1.4 µM	1.9 µM	3.8 µM	> 91%	1.4 µM	–	–	–	–	–	–	–	–	–
COc1ccc(/C=C/C(=O)c2ccc(NC(=O)c3cc4cc5cc(C)ccc5nc4s3)cc2)cc1OC	1.2 µM	0.9 µM	1 µM	0.9 µM	2 µM	> 91%	0.5 µM	15.72%	44.24%	38.31%	17.45%	7.22%	9.08%	2.31%	–	–
COc1cccc(/C=C/C(=O)c2ccc(NC(=O)c3cc4cc5cc(OC)ccc5nc4s3)cc2)c1	4.5 µM	4.9 µM	6.7 µM	5.5 µM	> 50 µM	> 91%	2.8 µM	–	–	–	–	–	–	–	–	–
COc1cc(/C=C/C(=O)c2ccc(NC(=O)c3cc4cc5cc(C)ccc5nc4s3)cc2)cc(OC)c1OC	2.2 µM	2 µM	3.7 µM	3.2 µM	6.4 µM	> 91%	3.2 µM	–	–	–	–	–	–	–	–	–
O=C(/C=C/c1ccc(Cl)cc1)c1ccc(NC(=O)c2cc3cc4ccccc4nc3s2)cc1	5.9 µM	6.2 µM	7.9 µM	6.7 µM	19.4 µM	> 91%	–	–	–	–	–	–	–	–	–	–
O=C(/C=C/c1ccccc1)c1ccc(NC(=O)c2cc3cc4ccccc4nc3s2)cc1	–	12.5 µM	14.9 µM	–	> 50 µM	> 91%	–	–	–	–	–	–	–	–	–	–
COc1ccc(/C=C/C(=O)c2ccc(NC(=O)c3cc4cc5ccccc5nc4s3)cc2)cc1OC	–	0.5 µM	1.1 µM	1.2 µM	2.4 µM	> 91%	1.6 µM	–	–	–	–	–	–	–	–	–
Cc1ccc2nc3sc(C(=O)Nc4ccc(C(=O)/C=C/c5ccc(Cl)cc5)cc4)cc3cc2c1	9.6 µM	9.4 µM	11.6 µM	9.2 µM	39.6 µM	> 91%	–	–	–	–	–	–	–	–	–	–
COc1ccc2nc3sc(C(=O)Nc4ccc(C(=O)/C=C/c5ccc(Cl)cc5)cc4)cc3cc2c1	13.8 µM	14.4 µM	17.2 µM	12.2 µM	44.6 µM	> 91%	–	–	–	–	–	–	–	–	–	–
COc1ccc2nc3sc(C(=O)Nc4ccc(C(=O)/C=C/c5ccc(OC)c(OC)c5)cc4)cc3cc2c1	1 µM	0.8 µM	0.5 µM	0.2 µM	1.6 µM	> 91%	0.7 µM	–	–	–	–	–	–	–	–	–
CCCCNc1ncnc2c1sc1nc3ccccc3cc12	–	–	–	–	–	–	–	–	–	–	–	–	–	–	0.54 µM	1.7 µM
